Like-named read-outs stand apart in the source and are kept apart here.
How the values were obtained:
[1] = biological target: hWRN(519-1227)_C-H3CV-GFP-10His (Homo sapiens, UniProt Q14191); assay: Helicase Assay for WRN Inhibition (ATP-dependent, fluorescence based)
[2] = test system: SW480 cells; assay: Cell growth assay (CellTiter-Glo 2.0), SW480 MSS cell line; details: Homo sapiens, SW480, 120 h, read-out: Cell Growth Inhibition GI50 SW480
[3] = biological target: T1, WRN C727 (Homo sapiens, UniProt Q14191); assay: Target engagement, in vitro (lysate), OCI-AML2; format: binding; details: read-out: OCI-AML2 WRN C727 TE50 in vitro (lysate)
T1 construct: endogenous in cells; host or cells: OCI-AML2
T1 sequence (Q14191 whole entry): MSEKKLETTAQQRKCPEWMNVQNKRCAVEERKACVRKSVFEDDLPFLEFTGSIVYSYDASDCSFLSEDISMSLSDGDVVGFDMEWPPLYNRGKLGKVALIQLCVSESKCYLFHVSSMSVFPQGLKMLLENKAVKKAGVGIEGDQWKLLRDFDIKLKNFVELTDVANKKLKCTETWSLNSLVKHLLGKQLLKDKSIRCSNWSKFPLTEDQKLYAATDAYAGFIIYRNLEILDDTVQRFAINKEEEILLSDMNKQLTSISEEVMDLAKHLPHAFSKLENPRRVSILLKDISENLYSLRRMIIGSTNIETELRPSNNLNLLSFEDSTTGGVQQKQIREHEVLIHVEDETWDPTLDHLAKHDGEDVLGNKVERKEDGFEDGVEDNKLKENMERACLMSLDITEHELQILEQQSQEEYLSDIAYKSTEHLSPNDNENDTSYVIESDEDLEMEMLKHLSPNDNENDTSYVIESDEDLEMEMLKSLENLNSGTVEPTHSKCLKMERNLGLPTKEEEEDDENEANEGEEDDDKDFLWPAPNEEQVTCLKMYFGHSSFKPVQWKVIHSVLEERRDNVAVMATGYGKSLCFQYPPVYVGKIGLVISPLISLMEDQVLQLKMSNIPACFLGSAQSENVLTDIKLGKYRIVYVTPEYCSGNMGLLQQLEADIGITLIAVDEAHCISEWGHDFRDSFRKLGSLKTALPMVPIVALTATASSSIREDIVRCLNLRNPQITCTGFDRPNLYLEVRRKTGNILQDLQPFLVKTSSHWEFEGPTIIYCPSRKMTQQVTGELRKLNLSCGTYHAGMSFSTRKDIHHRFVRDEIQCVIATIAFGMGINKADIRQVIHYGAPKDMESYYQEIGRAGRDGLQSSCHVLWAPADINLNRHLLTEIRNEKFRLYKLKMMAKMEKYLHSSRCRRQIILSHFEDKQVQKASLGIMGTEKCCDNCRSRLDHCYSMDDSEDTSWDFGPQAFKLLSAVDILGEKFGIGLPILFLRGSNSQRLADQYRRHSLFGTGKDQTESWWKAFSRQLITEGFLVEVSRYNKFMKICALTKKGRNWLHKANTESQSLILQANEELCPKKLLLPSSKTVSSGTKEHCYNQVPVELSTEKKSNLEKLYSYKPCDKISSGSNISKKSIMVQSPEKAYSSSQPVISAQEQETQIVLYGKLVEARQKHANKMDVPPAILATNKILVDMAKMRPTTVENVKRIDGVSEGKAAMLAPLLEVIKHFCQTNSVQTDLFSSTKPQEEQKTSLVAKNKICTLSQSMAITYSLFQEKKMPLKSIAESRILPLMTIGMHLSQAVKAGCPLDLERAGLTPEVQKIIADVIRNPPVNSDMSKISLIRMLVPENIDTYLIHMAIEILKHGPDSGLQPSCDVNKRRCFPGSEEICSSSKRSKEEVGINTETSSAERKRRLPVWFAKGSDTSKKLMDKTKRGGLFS
Procedure, shortened: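 Percent engagement of WRN C727 is expressed against DMSO-treated samples, measured by PRM mass spectrometry of streptavidin-enriched, probe-tagged tryptic peptides. Compound dose responses preceded probe labelling of solvent-exposed cysteines, in either living OCI-AML2 cells or their lysates.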

[4] = test system: HCT 116 cells; assay: Cell growth assay (CellTiter-Glo 2.0), HCT 116 MSI-H cell line; details: Homo sapiens, HCT-116, 120 h, read-out: Cell Growth Inhibition GI50 HCT-116
Procedure: The effects of compound on cellular viability were determined using the CellTiter-Glo® 2.0 Luminescent Cell Viability Assay (Promega, Madison, WI).
SW480 cells were seeded at 1,000 cells per well in Eagle's Minimum Essential Medium (EMEM) with 10% FBS. Both cell lines were seeded in a volume of 50 μL medium per well. […] The concentration range was adjusted as needed for compounds of different potencies. The cells treated with compounds were incubated for 5 days at 37° C. in 5% CO2. […] The plate was then read on a Clariostar plate reader (BMG Labtech, Cary, NC) in luminescence mode. The previously measured baseline cell viability was subtracted from the luminescence value of each well, and cell viability (% of DMSO) was plotted as a function of log compound concentration. The EC50 was then calculated for each compound using Dotmatics Software (San Diego, CA).

[5] = WRN Helicase IC50, 30 min preincubation with ATP, 30 min reaction

hWRN(519-1227)_C-H3CV-GFP-10His, sequence (Q14191 519-1227): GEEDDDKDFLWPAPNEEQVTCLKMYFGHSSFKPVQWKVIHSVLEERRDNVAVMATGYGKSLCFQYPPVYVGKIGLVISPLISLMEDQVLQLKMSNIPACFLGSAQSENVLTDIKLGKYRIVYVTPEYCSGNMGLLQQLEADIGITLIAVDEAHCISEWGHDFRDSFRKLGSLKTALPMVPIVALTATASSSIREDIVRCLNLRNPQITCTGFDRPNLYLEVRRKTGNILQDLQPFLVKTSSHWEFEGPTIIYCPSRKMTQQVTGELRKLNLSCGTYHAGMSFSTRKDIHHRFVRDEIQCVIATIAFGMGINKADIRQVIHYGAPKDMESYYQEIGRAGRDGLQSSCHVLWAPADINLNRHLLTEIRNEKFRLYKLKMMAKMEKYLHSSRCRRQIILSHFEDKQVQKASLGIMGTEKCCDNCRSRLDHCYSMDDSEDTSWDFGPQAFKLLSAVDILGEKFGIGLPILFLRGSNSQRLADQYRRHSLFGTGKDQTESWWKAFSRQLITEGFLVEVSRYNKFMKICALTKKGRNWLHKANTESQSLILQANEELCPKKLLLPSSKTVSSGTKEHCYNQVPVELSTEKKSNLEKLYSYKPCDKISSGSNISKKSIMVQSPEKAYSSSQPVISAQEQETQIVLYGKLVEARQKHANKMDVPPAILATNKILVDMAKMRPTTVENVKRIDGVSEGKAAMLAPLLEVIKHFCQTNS

| SMILES | IC50 [1, 5] [nM] | GI50 [2] [nM] | IC50 [3] [nM] | GI50 [4] [nM] | IC50 [1] [nM] |
| --- | --- | --- | --- | --- | --- |
| C[C@@H](/C=C/S(=O)(=O)C1CC1)NC(=O)c1cnc(C2CC2)nc1Oc1ccccc1 [Example 25, (S,E)-2-cyclopropyl-N-(4-(cyclopropylsulfonyl)but-3-en-2-yl)-4-phenoxypyrimidine-5-carboxamide] | 12000 | > 10000 | > 100000 | 5000 |  |
| CS(=O)(=O)/C=C1/CCN(C(=O)c2cnc(C3CC3)nc2Oc2ccccc2)C1 [Example 26, (2-cyclopropyl-4-phenoxy-pyrimidin-5-yl)-[(3Z)-3-(methylsulfonylmethylene)pyrrolidin-1-yl]methanone] |  | 54000 | > 100000 | 18000 | 103000 |
| CS(=O)(=O)/C=C/[C@H](CC1CC1)NC(=O)c1cnc(C2CC2)nc1Oc1ccccc1 [Example 28, (S,E)-2-cyclopropyl-N-(1-cyclopropyl-4-(methylsulfonyl)but-3-en-2-yl)-4-phenoxypyrimidine-5-carboxamide] | 1500 | 37200 | 6740 | 606 |  |
| CS(=O)(=O)/C=C/[C@@H](NC(=O)c1cnc(C2CC2)nc1Oc1ccccc1)C1CC(F)(F)C1 [Example 30, (S,E)-2-cyclopropyl-N-(1-(3,3-difluorocyclobutyl)-3-(methylsulfonyl)allyl)-4-phenoxypyrimidine-5-carboxamide] | 450 | 16000 | 1430 | 120 |  |
| CS(=O)(=O)/C=C/[C@@H](NC(=O)c1cnc(C2CC2)nc1Oc1ccccc1)C1CCOCC1 [Example 33, (S,E)-2-cyclopropyl-N-(3-(methylsulfonyl)-1-(tetrahydro-2H-pyran-4-yl)allyl)-4-phenoxypyrimidine-5-carboxamide] | 2500 | > 100000 | 4640 | 1300 |  |
| CS(=O)(=O)/C=C/[C@@H](NC(=O)c1cnc(CC2CC2)nc1Oc1ccccc1)C1CC1 [Example 36, (S,E)-N-(1-cyclopropyl-3-(methylsulfonyl)allyl)-2-(cyclopropylmethyl)-4-phenoxypyrimidine-5-carboxamide] | 185 | 17700 | 450 | 59 |  |
| CS(=O)(=O)/C=C/[C@@H](NC(=O)c1cnc(C(F)C2CC2)nc1Oc1ccccc1)C1CC1 (stereo partly drawn) [Example 37, N—((S,E)-1-cyclopropyl-3-(methylsulfonyl)allyl)-2-(cyclopropylfluoromethyl)-4-phenoxypyrimidine-5-carboxamide] | 240 | 28600 | 450 | 35.9 |  |
| C[C@@H](/C=C/S(C)(=O)=O)NC(=O)c1cnc(C2(C)CC2)nc1Oc1ccccc1 [Example 38, (S,E)-2-(1-methylcyclopropyl)-N-(4-(methylsulfonyl)but-3-en-2-yl)-4-phenoxypyrimidine-5-carboxamide] | 434 | 11700 | 800 | 157 |  |
| C[C@@H](/C=C/S(C)(=O)=O)NC(=O)c1cnc(CC2CCC2)nc1Oc1ccccc1 [Example 53, (S,E)-2-(cyclobutylmethyl)-N-(4-(methylsulfonyl)but-3-en-2-yl)-4-phenoxypyrimidine-5-carboxamide] | 3600 | > 10000 | 14500 | 970 |  |
| C[C@@H](/C=C/S(C)(=O)=O)NC(=O)c1cnc(CC2CCCC2)nc1Oc1ccccc1 [Example 54, (S,E)-2-(cyclopentylmethyl)-N-(4-(methylsulfonyl)but-3-en-2-yl)-4-phenoxypyrimidine-5-carboxamide] | 2600 | > 10000 | 50000 | 770 |  |

The remaining compounds from weak to strong by GI50 [2], led by results:

| IC50 [1, 5] [nM] | GI50 [2] [nM] | IC50 [3] [nM] | GI50 [4] [nM] | IC50 [1] [nM] | SMILES |
| --- | --- | --- | --- | --- | --- |
| 2700 | 49000 | 3480 | 1200 |  | C[C@@H](/C=C/S(C)(=O)=O)NC(=O)c1cnc(CC2(C)CC2)nc1Oc1ccccc1 [Example 40, (S,E)-2-((1-methylcyclopropyl)methyl)-N-(4-(methylsulfonyl)but-3-en-2-yl)-4-phenoxypyrimidine-5-carboxamide] |
| 645 | 37400 | 1680 | 165 |  | CS(=O)(=O)/C=C/[C@@H](NC(=O)c1cnc(C2CC2)nc1Oc1ccccc1)C1CCC1 [Example 29, (S,E)-N-(1-cyclobutyl-3-(methylsulfonyl)allyl)-2-cyclopropyl-4-phenoxypyrimidine-5-carboxamide] |
|  | 33000 | 2060 | 720 | 1400 | CC1(Cc2ncc(C(=O)N3CC(=CS(C)(=O)=O)C3)c(Oc3ccccc3)n2)CC1 [Example 41, (2-((1-methylcyclopropyl)methyl)-4-phenoxypyrimidin-5-yl)(3-((methylsulfonyl)methylene)azetidin-1-yl)methanone] |
| 880 | 28000 | 3240 | 630 |  | CSC[C@@H](/C=C/S(C)(=O)=O)NC(=O)c1cnc(C2CC2)nc1Oc1ccccc1 [Example 31, (R,E)-2-cyclopropyl-N-(4-(methylsulfonyl)-1-(methylthio)but-3-en-2-yl)-4-phenoxypyrimidine-5-carboxamide] |
| 180 | 24300 | 650 | 85 |  | CC(C)c1ncc(C(=O)N[C@H](/C=C/S(C)(=O)=O)C2CC2)c(Oc2ccccc2)n1 [Example 16, (S,E)-N-(1-cyclopropyl-3-(methylsulfonyl)allyl)-2-isopropyl-4-phenoxypyrimidine-5-carboxamide] |
|  | 14000 | 640 | 110 | 240 | CC1(c2ncc(C(=O)N3CC(=CS(C)(=O)=O)C3)c(Oc3ccccc3)n2)CC1 [Example 39, (2-(1-methylcyclopropyl)-4-phenoxypyrimidin-5-yl)(3-((methylsulfonyl)methylene)azetidin-1-yl)methanone] |
| 86 | 13000 | 110 | 36.7 |  | CS(=O)(=O)/C=C/[C@@H](NC(=O)c1cnc(C2CCC2)nc1Oc1ccccc1)C1CC1 [Example 45, (S,E)-2-cyclobutyl-N-(1-cyclopropyl-3-(methylsulfonyl)allyl)-4-phenoxypyrimidine-5-carboxamide] |
| 1500 | 7800 | 18700 | 670 |  | CS(=O)(=O)/C=C/CNC(=O)c1cnc(C2CCC2)nc1Oc1ccccc1 [Example 43, (E)-2-cyclobutyl-N-(3-(methylsulfonyl)allyl)-4-phenoxypyrimidine-5-carboxamide] |
| 910 | 6200 | 8680 | 150 |  | C[C@@H](/C=C/S(C)(=O)=O)NC(=O)c1cnc(C2CC3(CC3)C2)nc1Oc1ccccc1 [Example 55, (S,E)-N-(4-(methylsulfonyl)but-3-en-2-yl)-4-phenoxy-2-(spiro[2.3]hexan-5-yl)pyrimidine-5-carboxamide] |
| 1700 | 5200 | 4440 | 355 |  | C[C@@H](/C=C/S(C)(=O)=O)NC(=O)c1cnc(C2(c3ccccc3)CC2)nc1Oc1ccccc1 [Example 42, (S,E)-N-(4-(methylsulfonyl)but-3-en-2-yl)-4-phenoxy-2-(1-phenylcyclopropyl)pyrimidine-5-carboxamide] |

— patent US20250188040A1, “PHARMACEUTICAL COMPOSITIONS COMPRISING WRN HELICASE INHIBITORS” (Vividion Therapeutics, Inc., priority 2022, published 2025)
